Results from US7109240B2, “Non-hazardous pest control” (Ecosmart Technologies, Inc., priority 1993, dated 2006).

Legend:
German cockroaches [1] = assay: Knockdown of cockroaches continuously confined to calcium carbonate + 5% neurally effective substance; format: in vivo, Blattella, germanica; conditions: for insecticidal activity (in words): 5% (wt/wt) in calcium carbonate, or dust alone; for KT50 / KT90 / KT90, Hours: 5% (wt/wt) ingredient in calcium carbonate, or dust alone, 1.2 cc, 78 ± 4° F., 55 ± 6% rh
Procedure: (§1) Continuous exposure tests.—The intrinsic insecticidal activity of the insecticide dust against B. germanica was determined by exposing cockroaches to fresh and aged deposits of the dust. Replicated groups of three to ten adult cockroaches from culture were confined to deposits of the dust, and its speed of action in terms of knockdown (KD) and paralysis was determined. Adult male cockroaches from culture were placed directly onto fairly heavy deposits of dust (1 to 1.2 cc) spread evenly on filter paper in covered 9-cm-diameter petri dishes. The time for irreversible KD to occur (KT) was determined from periodic, irregular observation. The insects were considered KD when they were on their back, or could be turned over, and could not right themselves within at least two minutes. […] Comparison of KD activity was made with some commercial dust formulations including a non-fluorinated silica aerogel (SG-68), Drione™ (a fluorinated silica aerogel+pyrethrins), and a commercial diatomaceous earth (Celite™) applied and tested in the same manner.
(§2) The beads were screened out of the resultant mix. Exactly 1.2 cc of dust or dust was spread onto Whatman filter paper in 9-cm-diam petri dishes and the knockdown (KD) of cockroaches confined to the dust mix was determined by periodically observing KD.

German cockroaches [2] = conditions: choice box; repellency measure
Procedure: Choice box tests.—The activity and repellency of the present insecticide dust in a choice test was determined with standard two-compartment choice boxes.
Choice boxes are 30.5 cm square, 10 cm tall wooden boxes, with a tempered masonite floor. A vertical partition panel separates the box into two equal-sized compartments. A 1.3 cm hole at the top center of the partition panel allows cockroaches to move from one compartment to the other. Transparent sheet plexiglass (0.3 cm thick) taped to the top retains cockroaches in the box and allows observation of live and dead in each compartment. A piece of masonite keeps one compartment dark (dark compartment). […]
Five boxes were used for each treatment and the untreated control. […] Cockroaches prefer to aggregate in the dark, and they will normally readily move from the light compartment to the dark compartment of untreated choice boxes within a day or two. […] The number dead and alive in each compartment of each box was recorded every few days. […]
The mortality produced in choice boxes, and the position of cockroaches in relation to the treatment, provides a measure of the likely ultimate efficacy of a treatment when used under actual field conditions. […] On the other hand, slow-acting insecticides such as boric acid are effective in choice box tests because cockroaches readily walk on those deposits and are eventually killed by them.

German cockroaches [3] = assay: Phenol vs. terpineol in calcium carbonate: knockdown of cockroaches; format: in vivo, Blattella, germanica
Procedure: as §2
A further test was conducted to compare the effectiveness of phenol vs. terpineol as a neurally effective substance.

[4] = system: adult male German cockroaches; assay: Control test: knockdown of cockroaches continuously confined to deposits of the solid dust components; format: in vivo, Blattella, germanica; conditions: continuously confined to dust deposit; 76° F., 55% relative humidity
Procedure: as §1
A control test was conducted using only the solid components of the embodiment.

[5] = 0.32 % (wt/wt) in calcium carbonate
[6] = 0.63 % (wt/wt) in calcium carbonate
[7] = 1.25 % (wt/wt) in calcium carbonate
[8] = 2.5 % (wt/wt) in calcium carbonate
[9] = 5.0 % (wt/wt) in calcium carbonate

In the case of OCCc1ccccc1 [Phenyl ethyl alcohol], the “insecticidal activity (in words)” value (German cockroaches [1]) is reported as “most active”, the “KT50” value (German cockroaches [1]) is reported as 0.7 h and the “KT90” value (German cockroaches [1]) is reported as 1.0 h. The “KT90, Hours” value (German cockroaches [1]; listed as phenyl ethyl alcohol) was “about one hour or so”.

With OB(O)O [Boric acid, tech., Boric acid] the “% of live in light on day 1” value (German cockroaches [2]) was 13% and the “% of live in light on day 7” value (German cockroaches [2]) was 100%.

For O=C([O-])[O-].[Ca+2] [Calcium carbonate (CaCO3), Calcium carbonate], the “insecticidal activity (in words)” value (German cockroaches [1]) was “not insecticidal” and the “% KD at 24 h” value (German cockroaches [1]; dust alone) was “(1.3% KD at 24 h)”.

Oc1ccccc1 [Phenol] was tested, and the “KT-50” value (German cockroaches [3]; [5]) was 16.5 h, the “KT-90” value (German cockroaches [3]; [5]) was 24.0 h and the “KT-50” value (German cockroaches [3]; [6]) was 7.5 h. For the same molecule, the “KT-90” value (German cockroaches [3]; [6]) was 20.3 h, the “KT-50” value (German cockroaches [3]; [7]) was 0.4 h and the “KT-90” value (German cockroaches [3]; [7]) was 1.5 h. For the same molecule, the “KT-50” value (German cockroaches [3]; [8]) was 0.2 h, the “KT-90” value (German cockroaches [3]; [8]) was 0.4 h and the “KT-50” value (German cockroaches [3]; [9]) was under 0.1 h. For the same molecule, the “KT-90” value (German cockroaches [3]; [9]) was 0.1 h and the “insecticidal activity (in words)” value (German cockroaches [3]; in CaCO3, every rate tested) was “more insecticidal than terpineol”.

CC(=O)OCc1ccccc1 [Benzyl acetate] was tested, and the “insecticidal activity (in words)” value (German cockroaches [1]) was “most active”, the “KT50” value (German cockroaches [1]) was 0.7 h and the “KT90” value (German cockroaches [1]) was 1.0 h. For the same molecule, the “KT90, Hours” value (German cockroaches [1]; listed as benzyl acetate) was “about one hour or so”.

O=C([O-])O.[Na+] [Sodium bicarbonate (NaHCO3), Sodium bicarbonate] was tested, and the “KT50” value [4] was 16.5 h, the “KT90” value [4] was 20.9 h and the “KT50” value (German cockroaches [1]) was 9.7 h. The “KT90” value (German cockroaches [1]) was 16.0 h.

With CCOC(=O)c1ccccc1C(=O)OCC [Diethyl phthalate] the “insecticidal activity (in words)” value (German cockroaches [1]) was “not insecticidal”.

In the case of CCCCC/C(C=O)=C/c1ccccc1 [Amyl cinnamic aldehyde, 5%, Amyl cinnamic aldehyde], the “insecticidal activity (in words)” value (German cockroaches [1]) is reported as “much slower, about as active as diatomaceous earth”, the “KT50” value (German cockroaches [1]) is reported as 9.4 h and the “KT90” value (German cockroaches [1]) is reported as 15.5 h.
